According to article PMC3853024, “Aromatase inhibitor treatment with an intravaginal device and its effect on pre-ovulatory ovarian follicles in a bovine model” (Reproductive Biology and Endocrinology : RB&E, 2013):
Where two headings read alike, the source gives them in different places.

What was measured:
plasma progesterone = assay: Plasma progesterone concentration (radioimmunoassay) after post-treatment ovulation; format: in vivo, cattle (Hereford-cross beef heifers); conditions: first 12 days post-ovulation, n=15, P=0.01
Protocol: Heifers in which a CL was detected were given two luteolytic doses of PGF (12 h apart) and monitored by ultrasonography for ovulation. Five to eight days later, the two largest ovarian follicles were ablated by transvaginal ultrasound-guided follicular aspiration to synchronize follicular wave emergence which was expected to occur 1 to 1.5 days later. Prostaglandin (500 μg cloprostenol, Estrumate, Schering-Plough Animal Health, Pointe-Claire, QC, Canada) was given intramuscularly at 60 and 72 h after follicular ablation to induce regression of the CL and shift from a non-ovulatory to an ovulatory follicular wave. […] Devices were inserted on Day 1 and were kept in place until Day 7 or until ovulation was detected, which ever occurred first. […]
Plasma progesterone concentrations were determined in duplicate using a commercial solid-phase radioimmunoassay kit (Coat-A-Count; Diagnostic Products Corporation, Los Angeles, CA, USA). […] All samples were analyzed in a single assay; the intra-assay coefficients of variation were 9.7% and 5.8 % for low- (mean, 1.7 ng/mL) and high-reference samples (mean, 18.7 ng/mL), respectively. […]

[1] = Pharmacokinetics of a letrozole-containing intravaginal device in heifers (plasma letrozole by LCMS/MS); format: in vivo, cattle (Hereford-cross beef heifers); conditions: for half-life: read-out: Half-life (T1/2) (converted); for Cmax: read-out: Maximal concentration (Cmax); for MRT: read-out: Mean residence time (MRT); for clearance: read-out: Systemic clearance (ClS) (converted); for Vd/F: read-out: Volume of distribution (Vz/f)
Protocol: Intravaginal devices were prepared using a Cue-Mate spine (Bioniche Animal Health, Bellville, ON, Canada) assembled with two blank (progesterone-free) silicone pods that were coated with a gel-based vehicle containing letrozole or vehicle only (control). The vehicle contained the following (all ingredients % w/w): letrozole 10%, gelatin 20% (Gelatin type B, Fisher Scientific, Pittsburgh, PA, USA), polymer 65% (prepared by mixing distilled water 68%, Poloxamer 188 12% and Poloxamer 407 20%, both from Spectrum Chemical, New Brunswick, NJ, USA) and distilled water 5%.
Blood samples were collected by coccygeal venipuncture into 10 mL heparinized vacuum tubes (Becton Dickinson Vacutainer Systems, Franklin Lakes, NJ, USA). Samples were collected daily from pre-treatment follicular wave emergence (Day 0) to 12 days after the subsequent ovulation. In a subset of letrozole-treated animals (n=4), frequent blood samples were collected using an in-dwelling jugular catheter, as previously described, at the time of catheter placement and 0, 10, 20, 30 min, 1, 1.5, 2, 3, 4, 6, 8, 12 and 24 h after treatment for measurement of plasma letrozole concentration. Blood samples were centrifuged at 1500 × g for 20 min and plasma was separated and stored in plastic tubes at -20°C.
Plasma letrozole concentrations were quantified using liquid chromatography tandem mass spectrometry (LCMS/MS), as described. Briefly, letrozole was extracted from […] with […] of 0.1M ammonium acetate followed by the addition of 5 mL methyl t-butyl ether (MTBE) and vortexed for 15 s. The organic layer was removed and transferred to a fresh 15 mL plastic tube and dried by gentle nitrogen gas flow. The dried extract was reconstituted in 1 mL of 100% ethanol. Separation was accomplished by HPLC (Agilent 1200; Agilent, Santa Clara, CA, USA) fitted with an analytical column (50 × 2.1 mm, […] particle size; Betasil C18; Thermo Scientific, Waltham, MA, USA) operated at 35°C. Mass spectra were collected using a tandem mass spectrometer (SCIEX 3000; Applied Bioscience, Foster City, CA, USA) fitted with an electrospray ionisation source, operated in the negative ionisation mode. Quantification was performed using Analyst 1.4.1 software provided by SCIEX (Applied Bioscience). The minimum and maximum values along the standard curve were 0.25 and 500 ng/mL, respectively. The limit of quantification used in this method was 0.25 ng/mL and the mean recovery was 70%.
The following pharmacokinetic parameters were determined: Cmax (maximum observed plasma concentration of letrozole), tmax (time to reach Cmax), t1/2 (terminal elimination half-life), AUC (area under the plasma letrozole concentration-time curve from zero to infinity calculated as AUCtlast). The concentration of letrozole in plasma as a function of time (C–t) data for each heifer was analyzed by non-compartmental techniques using a computer modeling program (WinNonLin Standard Edition Version 2.1, Pharsight Corporation, Mountain View, CA, USA). Peak letrozole concentration in plasma (Cmax) and time to peak letrozole concentration (tmax) were determined using observed values. The apparent terminal rate constant (λ) was determined by linear regression of the last 6–8 points on the terminal phase of the logarithmic plasma concentration vs time curve. The area under the C–t curve until the final plasma sample (AUClast) was determined using the linear trapezoidal rule. The total area under the curve extrapolated to infinity (AUC0-∞) was calculated by adding the Clast obs/λ + AUClast. The terminal half-life (T1/2λ) was calculated as ln2 ⁄λ. The mean residence time (MRT) was calculated as the area under the moment curve extrapolated to infinity (AUMC0-∞) ⁄AUC0-∞. Systemic clearance (ClS) was determined using the dose divided by AUC0-inf. The apparent volume of distribution (Vλ/f) was calculated by clearance divided by λ. […]

[2] = Mean of 4 heifers, intravaginal device 1 g letrozole
[3] = female, Hereford-cross, bovine, plasma, 1 g, Heifer 1, intravaginal device 1 g letrozole
[4] = female, Hereford-cross, bovine, plasma, 1 g, Heifer 2, intravaginal device 1 g letrozole
[5] = female, Hereford-cross, bovine, plasma, 1 g, Heifer 3, intravaginal device 1 g letrozole
[6] = female, Hereford-cross, bovine, plasma, 1 g, Heifer 4, intravaginal device 1 g letrozole
[7] = female, Hereford-cross, bovine, plasma, 1 g, Mean of 4 heifers, intravaginal device 1 g letrozole

For `N#Cc1ccc(C(c2ccc(C#N)cc2)n2cncn2)cc1` [Letrozole], the “Plasma progesterone concentrations versus control” value (plasma progesterone) was “higher”, the “Area under the curve (AUClast)” value ([1]; Heifer 1, intravaginal device 1 g letrozole) was 3538.1 hours x ng/mL and the “Area under the curve (AUClast)” value ([1]; Heifer 2, intravaginal device 1 g letrozole) was 2697.7 hours x ng/mL. The “Area under the curve (AUClast)” value ([1]; Heifer 3, intravaginal device 1 g letrozole) was 2583.1 hours x ng/mL, the “Area under the curve (AUClast)” value ([1]; Heifer 4, intravaginal device 1 g letrozole) was 1698.0 hours x ng/mL and the “Area under the curve (AUClast)” value [1, 2] was 2629.2 hours x ng/mL. The “Half-life (T1/2)” value [1, 2] was 33.3 h, the half-life [1, 3] was 35.1 h and the Cmax [1, 3] was 32.4 ng/mL. It also gave an MRT [1, 3] of 71.5 h, a clearance [1, 3] of 1.67 mL/min/kg and a Vd/F [1, 3] of 6.2 L/kg. It also gave a half-life [1, 4] of 20.4 h, a Cmax [1, 4] of 35.3 ng/mL and an MRT [1, 4] of 56.2 h. It also gave a clearance [1, 4] of 3.33 mL/min/kg, a Vd/F [1, 4] of 4.9 L/kg and a half-life [1, 5] of 41.9 h. For the same molecule, the Cmax [1, 5] was 27.3 ng/mL, the MRT [1, 5] was 65.5 h and the clearance [1, 5] was 3.33 mL/min/kg. The Vd/F [1, 5] was 9.9 L/kg, the half-life [1, 6] was 35.7 h and the Cmax [1, 6] was 31.7 ng/mL. The MRT [1, 6] was 48.7 h, the clearance [1, 6] was 5 mL/min/kg and the Vd/F [1, 6] was 13.2 L/kg. It also gave a half-life [1, 7] of 33 h, a Cmax [1, 7] of 31.7 ng/mL and an MRT [1, 7] of 60.5 h. The clearance [1, 7] was 3.33 mL/min/kg, the Vd/F [1, 7] was 8.5 L/kg and the bioavailability ([1]; female, Hereford-cross, bovine, plasma, other: intravaginal device, 1 g, Mean, intravaginal device AUClast versus single iv injection AUClast (unpublished data), corrected by dose) was 16%. For the same molecule, the Tmax ([1]; female, Hereford-cross, bovine, plasma, other: intravaginal device, 1 g, post-device insertion, n=4, read-out: Time of maximal concentration in plasma (tmax)) was 24 h and the “Duration of letrozole release from the intravaginal device” value ([1]; post-insertion, inferred from plasma letrozole concentration profile) was 24 h.
